Measurements reported in PMC10201049, “Rhein-attenuates LPS-induced acute lung injury via targeting NFATc1/Trem2 axis” (Inflammation Research, 2023).

Target: T1, NFATc1 (Mus musculus, UniProt O88942)
T1 construct: endogenous protein in RAW264.7 cell lysate
T1 sequence (O88942 1-717): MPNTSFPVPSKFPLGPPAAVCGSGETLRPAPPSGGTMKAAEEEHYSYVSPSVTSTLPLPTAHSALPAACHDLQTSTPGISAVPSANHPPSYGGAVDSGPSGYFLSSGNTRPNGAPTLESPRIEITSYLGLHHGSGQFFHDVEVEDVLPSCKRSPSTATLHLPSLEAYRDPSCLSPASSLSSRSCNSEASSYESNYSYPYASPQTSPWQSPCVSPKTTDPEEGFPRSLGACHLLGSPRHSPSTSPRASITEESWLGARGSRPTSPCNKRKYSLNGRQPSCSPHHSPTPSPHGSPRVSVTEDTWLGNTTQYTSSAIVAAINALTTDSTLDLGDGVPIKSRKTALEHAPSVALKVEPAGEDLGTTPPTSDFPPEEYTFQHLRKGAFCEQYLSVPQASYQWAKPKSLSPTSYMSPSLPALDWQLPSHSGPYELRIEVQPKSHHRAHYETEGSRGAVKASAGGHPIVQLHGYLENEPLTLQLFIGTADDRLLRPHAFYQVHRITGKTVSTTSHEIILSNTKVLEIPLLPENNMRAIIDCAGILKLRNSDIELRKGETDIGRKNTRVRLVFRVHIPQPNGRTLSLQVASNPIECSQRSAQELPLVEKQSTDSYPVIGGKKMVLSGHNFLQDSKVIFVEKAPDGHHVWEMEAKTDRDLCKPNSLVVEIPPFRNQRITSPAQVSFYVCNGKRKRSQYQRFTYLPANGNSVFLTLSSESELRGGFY
Test: biotin pull-down on streptavidin beads, western blot
Format: biochemical
Settings: labelled compound (biotin conjugate of rhein, linker only drawn); biotin alone as control; RAW264.7 lysate, 4 °C bead loading

**Q.** `O=C1N[C@H]2[C@H](CS[C@H]2CCCCC(=O)Oc2cccc3c2C(=O)c2c(O)cc(C(=O)O)cc2C3=O)N1` [Bio-Rhein, Biotinylated-Rhein] was tested. Which “biotin pull-down on streptavidin beads, western blot” value did it give?
**A.** The results of western immunoblotting indicated the direct interaction between rhein and NFATc1
